Several values for one entry are separate records, joined by “and”; a condition that tells them apart may be missing. Equal entries are not always repeated. Where two headings read alike, the source gives them in different places.

Broadly, the Ki is the dissociation constant of the complex between target and ligand, obtained from inhibition or displacement.

The test system of data set [1] is bovine thrombin in plasma samples. Briefly: Ex-vivo TT. In kind it is in vivo, New Zealand white rabbits. On the set-up: key: thrombin (coagulation) time in seconds. The following applies: 1 mg/kg i.v. bolus, rabbit. Here is the method: A volume of 150 μl of citrated normal human plasma and 20 μl of buffer or sample were warmed at 37° C. for 1 min. Coagulation was started by adding 150 ul of freshly prepared bovine thrombin (5 NIHu/ml saline) and the coagulation time was recorded on a coagulometer.
A phosphate buffer, pH 7.8, containing 0.1% bovine serum albumine and 0.02% sodium azide was used. The samples were dissolved in DMSO and diluted with the buffer. When no inhibitor was used DMSO was added to the buffer to the same concentration as that used in the samples. The inhibitor concentrations were plotted against the thrombin times in a semilogarithmic graph from which the inhibitor concentration that caused a doubling (40 sec) of the thrombin time was determined.
(§1) Data was obtained as for in-vitro tests, but using plasma samples obtained at 0, 1, 10, 30 and 60 minutes after dosing of 1 mg/kg, i.v. bolus injection in a marginal ear vein in New Zealand white rabbits, which were anaesthetized from a canula in the carotid artery. [drawing 18]

For a further data set, the system named is plasma samples. Briefly: Ex-vivo APTT. On the set-up: unit not given here. In kind it is in vivo, New Zealand white rabbits. The following applies: 1 mg/kg i.v. bolus, rabbit. The method, then:
A volume of 150 μl of citrated (3.2%) normal human plasma was incubated at 37° C. with sample (20 μl) or buffer (20 μl, control) for 1 min. To the solution was added reconstituted “AUTOMATED APTT” (available from Organon Teknika, 0.1 ml). Each solution was activated at 37° C. for 5 min.
After activation, calcium chloride (0.1 ml, 0.025M, prewarmed at 37° C.) was added and clot detection was timed using a “semiautomated coagulometer” (Nach, Schnicter und Gross).
as §1

Another data set deals with human α-thrombin (Homo sapiens, UniProt P00734). In words: biochemical. In kind it is biochemical. Here is the method:
The inhibition of human α-thrombin was determined by the inhibition of the enzyme catalyzed hydrolysis of three different concentrations of the chromogenic substrate S-2238.
200 μl of sample or buffer and 50 μl of S-2238 were incubated at 37° C. for 1 min and 50 μl of human α-thrombin (0.25 NIHu/ml) was added. The initial rate of inhibited and uninhibited reactions were recorded at 405 nm. The increase in optical density was plotted according to the method of Lineweaver and Burke. The Km and apparent Km were determined and Ki was calculated using the relationship: [formula]

The nature of data set [2]: IC50 with and without incubation (enzyme not given). The format is biochemical.
Data set [3] has as its system 111indium-labelled platelets. In words: Deposition of 111indium-labelled platelets after intravenous dose. The format is in vivo, New Zealand white rabbits. The source says: M. Hero, K. D. Butler, C. […] Peripheral blood pressure was monitored by a pressure sensor in the carotid artery.
A short description of data set [4]: Peripheral blood pressure after intravenous dose. In kind it is in vivo, New Zealand white rabbits. An excerpt: […] R. May, C. M. Hero, K. D. Butler, C. P. Page, JOURNAL OF PHARMACOLOGICAL METHODS, 24, pp 1-35, 1990. Peripheral blood pressure was monitored by a pressure sensor in the carotid artery.
For the next data set, the target named is Plasmin (Homo sapiens, UniProt P00747). In words: IC50 against plasmin. In kind it is biochemical.
Chain of Plasmin (P00747 97-580 limits assumed, species assumed): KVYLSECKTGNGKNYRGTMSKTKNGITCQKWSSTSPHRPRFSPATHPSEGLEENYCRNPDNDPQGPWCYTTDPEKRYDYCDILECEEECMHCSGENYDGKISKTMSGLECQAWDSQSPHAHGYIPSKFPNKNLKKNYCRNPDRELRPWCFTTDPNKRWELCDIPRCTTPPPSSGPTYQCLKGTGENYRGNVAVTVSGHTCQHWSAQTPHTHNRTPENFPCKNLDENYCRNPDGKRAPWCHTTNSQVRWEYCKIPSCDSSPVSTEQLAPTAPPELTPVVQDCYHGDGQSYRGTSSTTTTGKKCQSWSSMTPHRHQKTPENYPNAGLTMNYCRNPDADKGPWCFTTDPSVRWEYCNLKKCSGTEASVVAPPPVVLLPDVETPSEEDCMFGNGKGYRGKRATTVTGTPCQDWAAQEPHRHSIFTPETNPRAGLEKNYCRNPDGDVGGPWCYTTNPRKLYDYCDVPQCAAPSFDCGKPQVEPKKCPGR
Chain of Plasmin (P00747 581-810 limits assumed, species assumed): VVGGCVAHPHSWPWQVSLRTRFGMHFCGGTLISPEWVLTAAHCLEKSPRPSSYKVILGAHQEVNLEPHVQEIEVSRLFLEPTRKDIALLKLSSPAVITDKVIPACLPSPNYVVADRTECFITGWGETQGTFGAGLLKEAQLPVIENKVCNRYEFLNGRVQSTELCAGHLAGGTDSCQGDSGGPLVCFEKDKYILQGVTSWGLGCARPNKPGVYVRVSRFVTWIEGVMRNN
Another data set addresses T1, Xa (Homo sapiens, UniProt P00742).
T1 construct: Plasmin; Xa; Urokinase
In words: IC50 against Xa. The format is biochemical.

Another data set has as its target Urokinase (Homo sapiens, UniProt P00749). In words: IC50 against urokinase. In kind it is biochemical.
A further data set deals with Kalhikrein. Briefly: IC50 against kallikrein. In kind it is biochemical.
Setting [5] is: human α-thrombin, S-2238, 37° C., read-out: Ki.
Where [6] appears, read: no incubation, read-out: IC50 No Incubations.
The mark [7] stands for this setting: with incubation, read-out: IC50 Inc.
[8] abbreviates: single value given, incubation not given, read-out: Plasmin no inc/inc.
The mark [9] stands for this setting: single value given, incubation not given, read-out: Xa no inc/inc.
[10] abbreviates: single value given, incubation not given, read-out: Urokinase no inc/inc.
Where [11] appears, read: single value given, incubation not given, read-out: Kalhikrein no inc/inc.

T1 sequence (P00742 41-179 limits assumed): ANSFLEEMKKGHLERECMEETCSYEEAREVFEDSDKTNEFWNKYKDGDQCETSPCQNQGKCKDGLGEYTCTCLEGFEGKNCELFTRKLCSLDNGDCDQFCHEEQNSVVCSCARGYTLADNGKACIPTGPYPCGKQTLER
T1 sequence (P00742 235-488 limits assumed): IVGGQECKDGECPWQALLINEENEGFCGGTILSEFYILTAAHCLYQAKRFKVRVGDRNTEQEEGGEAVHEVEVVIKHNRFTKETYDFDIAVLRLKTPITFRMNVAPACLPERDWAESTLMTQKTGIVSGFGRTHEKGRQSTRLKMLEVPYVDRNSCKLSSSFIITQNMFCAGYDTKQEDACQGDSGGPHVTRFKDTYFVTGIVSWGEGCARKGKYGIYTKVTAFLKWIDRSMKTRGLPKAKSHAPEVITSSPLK

As for `CCCCCC(NC(=O)[C@@H]1CCCN1C(=O)[C@@H](Cc1ccccc1)NC(=O)OCc1ccccc1)B1OC(C)(C)C(C)(C)O1` (stereo partly drawn) [Compound 11, Z-D-Phe-Pro-BoroPgl-OPinac], the “EX-VIVO T.T.” value in data set [1] (time 0 min) was 30 and 24.5 and 26; in data set [1] (time 1 min), >300 and >200; in data set [1] (time 10 min), >300 and >200. The “EX-VIVO A.P.T.T.” value with plasma samples (time 0 min) was 46.5 and 26.4; in the data set with plasma samples (time 60 min) it was 53.0 and 38.4.

For the molecule `CC(C)(C)OC(=O)NC(C(=O)N1CCCC1C(=O)NC(c1ccccc1)P(=O)(O)O)C(c1ccccc1)c1ccccc1` [Compound 15, Boc-D,L-Dpa-Pro-Pgl^P(OH)2], on human α-thrombin (setting [5]), the Ki came out at 59000 nM. Besides, the results for the IC50 in [2] (setting [6]) and in [2] (setting [7]) were 5280 nM and 83.6 nM, respectively.

Consider `NC(C(=O)N1CCCC1C(=O)NC(c1ccccc1)P(=O)(O)O)C(c1ccccc1)c1ccccc1` [Compound 16, D,L-Dpa-Pro-Pgl^P(OH)2], for which the Ki at human α-thrombin (setting [5]) came out at 223 nM. The IC50 in data set [2] (setting [6]) turned out to be 5160 nM; in data set [2] (setting [7]), 81.7 nM.

As to `O=C(NC(C(=O)N1CCCC1C(=O)NC(c1ccccc1)P(=O)(Oc1ccccc1)Oc1ccccc1)C(c1ccccc1)c1ccccc1)OCc1ccccc1` [Compound 17, Z-D-Dpa-Pro-Pgl^P(OPh)2], on human α-thrombin (setting [5]), the Ki came to 8460 nM.

Regarding `CCCCCC(NC(=O)[C@@H]1CCCN1C(=O)[C@H](N)C(c1ccccc1)c1ccccc1)P(=O)(O)O` (stereo partly drawn) [Compound 18, D-Dpa-Pro-Pgl^P(OH)2], the Ki at human α-thrombin (setting [5]) was 15100 nM. In addition, the IC50 was 148000 nM in data set [2] (setting [6]) and 751 nM in data set [2] (setting [7]).

`CCCCCC(NC(=O)C1CCCN1C(=O)C(Cc1ccccc1)NC(=O)OCc1ccccc1)P(=O)(Oc1ccccc1)Oc1ccccc1` [Compound 19, Z-D-Phe-Pro-Pgl^P(OPh)2] registered a Ki at human α-thrombin greater than 31000 nM.

Regarding `CCCCCC(NC(=O)C1CCCN1C(=O)C(N)Cc1ccccc1)P(=O)(Oc1ccccc1)Oc1ccccc1` [Compound 20, D-Phe-Pro-Pgl^P(OPh)2], affinity on human α-thrombin was put at a Ki of 109 nM. Further, in data set [3] (1 mg/kg i.v. dose), the “PLATELET ACCUMULATION (% OF NORMAL) LEG” value is “NONE” and the “PLATELET ACCUMULATION (% OF NORMAL) LUNG” value was “NONE”. Further, the “BLOOD PRESSURE Δ% of NORM” value in data set [4] (1 mg/kg i.v. dose) is “NONE”.

Regarding `CCCCCC(NC(=O)[C@@H]1CCCN1C(=O)[C@H](N)Cc1ccccc1)P(=O)(O)O` (stereo partly drawn) [Compound 21, D-Phe-Pro-Pgl^P(OH)2], the Ki at human α-thrombin (read-out: Ki) is greater than 98000 nM. Further, the IC50 in [2] (setting [6]) is greater than 137000 nM; in [2] (setting [7]), 4350 nM.

For the molecule `CCC(C)CC(NC(=O)[C@@H]1CCCN1C(=O)[C@@H](Cc1ccccc1)NC(=O)OCc1ccccc1)B1OC2CC3CC(C3(C)C)C2(C)O1` (stereo partly drawn) [Compound 22, Z-D-Phe-Pro-BoroMbg-OPin], the “PLATELET ACCUMULATION (% OF NORMAL) LEG” value in data set [3] (4 mg/kg iv. dose) is listed as 11%, TRANSIENT % OF NORMAL. The “PLATELET ACCUMULATION (% OF NORMAL) LUNG” value in data set [3] (4 mg/kg iv. dose) is “NONE”. In addition, in data set [4] (4 mg/kg iv. dose), the “BLOOD PRESSURE Δ% of NORM” value is on record as 0 Δ% of NORM. Besides, the IC50 in [2] (setting [6]) came to 7 nM; on Plasmin (setting [8]) it was 11500 nM; on Xa (setting [9]), 3860 nM; at Urokinase (setting [10]), 9130 nM; with Kalhikrein (setting [11]), 12900 nM.

Take `CCCCCC(NC(=O)[C@@H]1CCCN1C(=O)[C@H](N)C(c1ccccc1)c1ccccc1)P(=O)(Oc1ccccc1)Oc1ccccc1` (stereo partly drawn) [Compound 23, D-Dpa-Pro-Pgl^P(OPh)2]: the Ki on human α-thrombin (setting [5]) was 480 nM. Further, the results for the IC50 in [2] (setting [6]) and in data set [2] (setting [7]) were 187 nM and 0.938 nM, respectively.

For the molecule `CC1(C)C2CC3OB(C(CCCSC(=N)N)NC(=O)C4CCCN4C(=O)C(Cc4ccccc4)NC(=O)OCc4ccccc4)OC3(C)C1C2` [Compound 25, Z-D-Phe-Pro-BoroIrg-OPin], the “BLOOD PRESSURE Δ% of NORM” value in data set [4] (1 mg/kg i.v. dose) is reported as “SMALL”; in data set [4] (4 mg/kg iv. dose), 100% Δ% of NORM. Further, the IC50 in [2] (setting [6]) turned out to be 1500 nM; in data set [2] (setting [7]), 68 nM; on Plasmin (setting [8]) it was 8.4 nM; on Xa (setting [9]) it was 14.1 nM; on Urokinase (setting [10]), 75 nM; in the data set on Kalhikrein (setting [11]), 334 nM.

As to `COCCCC(NC(=O)[C@@H]1CCCN1C(=O)[C@H](N)Cc1ccccc1)P(=O)(Oc1ccccc1)Oc1ccccc1` (stereo partly drawn) [Compound 40, H-D-Phe-Pro-Mpg^P(OPh)2], at human α-thrombin (read-out: Ki), the Ki amounted to 18.8 nM. The IC50 in [2] (setting [6]) is 16600 nM; in data set [2] (setting [7]) it was 11.8 nM; on Plasmin (no incubation (first value of cell), read-out: Plasmin no inc), greater than 20900 nM; at Xa (no incubation (first value of cell), read-out: Xa no inc), greater than 20900 nM; at Xa (with incubation (second value of cell), read-out: Xa inc), greater than 20900 nM; at Urokinase (no incubation (first value of cell), read-out: Urokinase no inc) it was greater than 20900 nM. For the same molecule, the IC50 at Urokinase (with incubation (second value of cell), read-out: Urokinase inc) is greater than 20900 nM; in the data set on Kalhikrein (no incubation (first value of cell), read-out: Kalhikrein no inc) it was greater than 20900 nM; with Kalhikrein (with incubation (second value of cell), read-out: Kalhikrein inc), greater than 20900 nM.

Take `CC1(C)OB(C(Cc2ccccc2)NC(=O)C2CCCN2C(=O)C(Cc2ccccc2)NC(=O)OCc2ccccc2)OC1(C)C` [Compound 41, Z-D-Phe-Pro-BoroPhe-OPinac]: in [3] (4 mg/kg iv. dose), the “PLATELET ACCUMULATION (% OF NORMAL) LEG” value is recorded as “NONE”. Further, the “PLATELET ACCUMULATION (% OF NORMAL) LUNG” value in [3] (4 mg/kg iv. dose) was “NONE”. Besides, the “BLOOD PRESSURE Δ% of NORM” value in [4] (4 mg/kg iv. dose) is 21% Δ% of NORM. The IC50 is 12.8 nM in data set [2] (setting [6]); 37300 nM on Plasmin (setting [8]); 7940 nM at Xa (setting [9]); 6670 nM at Urokinase (setting [10]); 16700 nM in the data set with Kalhikrein (setting [11]).

As for `COCCCC(NC(=O)C1CCCN1C(=O)C(Cc1ccccc1)NC(=O)OCc1ccccc1)B1OC2CC3CC(C3(C)C)C2(C)O1` [Compound 50, Z-D-Phe-Pro-BoroMpg-OPin], the IC50 is 0.7 nM in data set [2] (setting [6]); 3230 nM at Plasmin (setting [8]); 1720 nM at Xa (setting [9]); 3630 nM on Urokinase (setting [10]); 7260 nM in the data set with Kalhikrein (setting [11]).

In the case of Bzl-Pros-Pro-BoroIrg-Opin [Compound 44], the IC50 stood at 1300 nM in [2] (setting [6]); 153 nM at Plasmin (setting [8]); 512 nM at Xa (setting [9]); 121 nM at Urokinase (setting [10]); 1080 nM in the data set with Kalhikrein (setting [11]).

Consider Z-D-Phe-Pro-BoroMbg-OPin [Compound 59], for which the “PLATELET ACCUMULATION (% OF NORMAL) LEG” value in [3] (1 mg/kg i.v. dose) is given as “NONE”. Also, the “PLATELET ACCUMULATION (% OF NORMAL) LUNG” value in [3] (1 mg/kg i.v. dose) is listed as “NONE”. Besides, in data set [4] (1 mg/kg i.v. dose), the “BLOOD PRESSURE Δ% of NORM” value was “NONE”. For the same molecule, the “EX-VIVO T.T.” value in data set [1] (time 0 min) is 28.9 and 22.5 and 22.4 and 23.5; in [1] (time 1 min), 111 and 106 and 171.5 and 168.5; in data set [1] (time 10 min) it was 35.9 and 34 and 37.9 and 38.4; in [1] (time 30 min), 29 and 30 and 32 and 31; in data set [1] (time 60 min), 28.4 and 28.5 and 27.9 and 28. Also, the “EX-VIVO A.P.T.T.” value in the data set on plasma samples (time 0 min) was 42 and 59.5 and 43.9 and 58; with plasma samples (time 1 min) it was 111.4 and 111 and 102.9 and 126; in the data set on plasma samples (time 10 min), 48.9 and 53 and 60.5 and 67; with plasma samples (time 30 min) it was 34.9 and 49 and 59 and 53.9; with plasma samples (time 60 min), 40.4 and 48.4 and 65.5 and 62.

The values above are taken from patent US6387881B1, “Inhibitors and substrates of thrombin” (priority 1992, dated 2002).
